Values after ≈ are worked out from the molar mass of the structure shown.
Test system: Escherichia coli
Experiment: Antimicrobial activity against Escherichia coli AJE0508 isolate carrying ISCR1 element related blaCTX-M-14 gene by agar dilution method
Format: functional

Compound | MIC [µg/mL]
C[C@H]1[C@H](NC(=O)/C(=N\OC(C)(C)C(=O)O)c2csc(N)n2)C(=O)N1S(=O)(=O)O [AZTREONAM] | 64 (≈ 147 µM)
C[C@@H](O)[C@H]1C(=O)N2C(C(=O)O)=C(SCCNC=N)C[C@H]12 [IMIPENEM ANHYDROUS] | 0.1 (≈ 0.334 µM)
CC(C)(O/N=C(\C(=O)N[C@@H]1C(=O)N2C(C(=O)[O-])=C(C[n+]3ccccc3)CS[C@H]12)c1csc(N)n1)C(=O)O [CEFTAZIDIME] | 32 (≈ 58.5 µM)
CC1(C)S[C@@H]2[C@H](NC(=O)[C@H](N)c3ccccc3)C(=O)N2[C@H]1C(=O)O [AMPICILLIN] | > 256
CO[C@@]1(NC(=O)Cc2cccs2)C(=O)N2C(C(=O)O)=C(COC(N)=O)CS[C@@H]21 [CEFOXITIN] | 8 (≈ 18.7 µM)
CO/N=C(\C(=O)N[C@@H]1C(=O)N2C(C(=O)O)=C(COC(C)=O)CS[C@H]12)c1csc(N)n1 [CEFOTAXIME] | 64 (≈ 141 µM)
